Reference: BigSolDB 2.1

Cc1cnc(NC(=O)C2=C(O)c3ccccc3S(=O)(=O)N2C)s1
solubility (mole fraction)
Conditions	293.15 K	298.15 K	303.15 K	308.15 K	313.15 K
in ethanol	4.47e-05	5.67e-05	7.52e-05	9.37e-05	0.000123
in ethyl acetate	0.000389	0.000453	0.00053	0.000607	0.000707
